Data as given in patent publication US20030229105A1, “Treatment of autoimmune disorders” (Cyclacel Limited, priority 2002, published 2003).

What was measured:
[1] = system: HIV-1 NSI (THA/92/001, subtype E envelope); assay: p24 gag ELISA of PHA-activated PBMC infected with NSI field isolate; assay type: cell-based; conditions: 10 μM drug postinfection
Method: We chose HIV-1 stably integrated cells, lymphocytic ACH2 and 8E5 cell lines, as well as monocytic U1 cells (and their uninfected parental counterparts CEM and U937, respectively) for our initial studies, since viral transcription could be activated and scored through signals, such as Tat, TNF-α or phorbol myristate acetate (PMA) and PHA. We first activated viruses in these cells with TNF-α (10 ng/ml) at 37° C. for 2 h, followed by washing, and then we incubated cells with 10 μM concentrations of each drug. […]. A somewhat similar pattern of drug inhibition was also seen when ACH2, 8E5, and U1 cells were treated with either Tat or a combination of PMA and PHA to induce full-length viral transcripts. […]. […] We next examined the effect of all three drugs on primary HIV-1 field isolates of SI and NSI strains. Activated PBMC were infected with two independent HIV-1 viral strains of SI (UG/92/029, subtype A envelope) and NSI (THA/92/001, subtype E envelope). […].
Five days later, the supernatants were collected, and the amount of newly synthesized HIV-1 was measured by p24 antigen assay. […]
Media from HIV-1 infected cell lines were centrifuged to pellet the cells, and supernatants were collected and diluted to 1:100 to 1:1,000 in RPMI 1640 prior to ELISA. […] The p24 gag antigen level was analyzed by using the HIVAG-1 Monoclonal Antibody Kit (Abbott Laboratories, Diagnostics Division). […]

[2] = system: CEM (uninfected) cells; assay: Cell cycle analysis (PI staining, FACS) of uninfected CEM cells; assay type: cell-based; conditions: TNF-α, 10 μM, 48 h; for effect on cell cycle progression: uninfected CEM
Source text: (§1) We next examined the cellular effects of these drugs on the cell cycle progression of HIV-1-infected and uninfected cells. […]. […] Therefore, the selective killing mechanism by this particular drug might partially be responsible for the decrease in HIV-1 titers observed in the infected cells. We also reasoned that Purvalanol A may be toxic to uninfected induced cells by increasing the G2/M population and the increase of apoptosis, as is evident in FIG. 2A. […] U937 is the uninfected monocytic parental cell line, and U1 is the U937 cell line infected with two copies of integrated HIV-1, only one of which is wild type for viral progeny formation. […]. This is in contrast to many apoptosis-inducing agents, such as TNF-α DNA-damaging agents (gamma irradiation, mitomycin C [6]), or sodium butyrate, in which cases the apoptosis of HIV-1-infected cell accompanies massive production and the release of infectious HIV-1 virions.
(§2) Forty-eight hours later, cells were collected, fixed with 70% ethanol, PI stained, and analyzed by FACS. (B and C) Experiments similar to the experiment in panel A were performed in ACH2 (B) or U1 (C) cells (both latently HIV-1 infected) plus TNF-α, followed by ethanol fixation, PI staining, and analysis by FACS. Apoptosis (Apop) represents a mixture of cells from either G1, S, or G2/M with characteristics of cell death.
(§3) For fluorescence-activated cell sorting (FACS) analysis, cells were stained with a cocktail of propidium iodide (PI) buffer (PBS with Ca^2+ and Mg^2+, RNase A [10 μg/ml], NP-40 [0.1%], and PI [50 μg/ml]) followed by cell-sorting analysis. FACS data acquired were analyzed by ModFit LT software (Verity Software House, Inc.).

[3] = system: ACH2 cells (latently HIV-1 infected); assay: Cell cycle analysis (PI staining, FACS) of HIV-1-infected ACH2 cells; assay type: cell-based; conditions: 10 μM; for apoptosis in HIV-1-infected cells: ACH2 plus TNF-α, 48 h (FIG. 2B)
Source text: as §1, §2, §3

[4] = system: uninfected T and monocytic cells; assay: Initial test of cdk inhibitors on uninfected cells (data not shown)

Row | Molecule | block of viral replication (p24 gag), NSI strain [1] | apoptosis ([2]; CEM cells) [%] | effect on cell cycle progression [2] | apoptosis ([3]; ACH2 cells, TNF-α, 48 h) [%] | apoptosis in HIV-1-infected cells [3] | toxicity in uninfected cells [4]
1 | Roscovitine | effectively blocked viral replication | 4.9 | did not change the cell cycle progression significantly | 30.21 | increased apoptosis | lack of toxicity
2 | CC(C)[C@H](CO)Nc1nc(Nc2cccc(Cl)c2)c2ncn(C(C)C)c2n1 [Purvalanol A] | effectively blocked viral replication |  | showed an increase in the G2/M population and induced apoptosis |  | increased apoptosis | lack of toxicity
